The text below walks through data of paper PMC8363620, “The ERAP1 active site cannot productively access the N-terminus of antigenic peptide precursors stably bound onto MHC class I” (Scientific Reports, 2021).

As usually defined, the inhibition is the change of the read-out against control, counted positive when it falls. Read a high inhibition as strong suppression. What is called IC50 is the midpoint of a concentration-inhibition curve.

The target in data set [1] is T1, ERAP1 (Homo sapiens, UniProt Q9NZ08).
T1 construct: inferred from the nickel-NTA purification; made in house; host or cells: Hi5 insect cells, recombinant baculovirus
Put plainly: ERAP1 trimming of MHCI-bound peptide followed by native-PAGE. It is filed as biochemical.

Data set [2] addresses T2, HLA-B*08(E76C) (Homo sapiens, UniProt P01889, A93T/A95T/D138N/E100C/E176V/E187T/K202T/Q94N/R180D/S35A/V36M/Y33D/Y91F).
T2 construct: made in house
The data set is described as follows: Peptide exchange with excess 9mer […] (AI9), native-PAGE. It is filed as binding. The procedure: Separating gel was prepared by mixing 2.9 mL Tris–HCl 0.375 M pH 8.8 solution, 2 mL acrylamide solution 30%, 100 μL APS 10% w/v and 5 μL TEMED. Stacking gel was formed by mixing 2.14 mL Tris–HCl 0.375 M pH 8.8 solution, 0.34 mL acrylamide solution 30%, 50 μL APS 10% w/v and 5 μL TEMED. Sample loading buffer was formed by mixing 62.5 mM Tris–HCl pH 6.8 solution, 25% v/v glycerol and 1% v/v bromophenol blue solution. Running buffer consists of 25 mM Tris-base and 192 mM glycine. Electrophoresis is conducted at 4 °C, 100 V for 5 h. 1,5 µg of MHC I-peptide complexes and 3 µg of ERAP1 were used.

For data set [3], the target named is T1, ERAP1. The data set is described as follows: Fluorigenic enzymatic assay: inhibition of ERAP1 hydrolysis of Leu-AMC. It is filed as biochemical. On the procedure:
Expression and purification of ERAP1 was performed as described previously. Briefly, ERAP1 was expressed in Hi5 insect cells after infection with recombinant baculovirus at 27 °C. Protein was isolated by affinity chromatography using nickel-nitrilotriacetic acid–agarose beads. Protein aliquots were kept at − 80 °C in Hepes/NaCl buffer pH 7.0 supplemented with 10% (v/v) glycerol, until needed.
ERAP1 enzymatic activity and inhibitor IC50 values were calculated as previously reported. Briefly, hydrolysis of the fluorescent substrate leucine-aminomethylcoumarin (Leu-AMC, Sigma–Aldrich, L2145) was followed at 460 nm (excitation at 380 nm) using a Spark 10 M (TECAN) multimode microplate reader. The IC50 of DG080 was calculated by using the equation log (inhibitor) versus response-variable slope of GraphPad Prism 8.0™.

Data set [4] concerns the target T1, ERAP1. Put plainly: ERAP1 ternary complex formation, native-PAGE band shift. The class given is binding. Particulars: equimolar mixture of ERAP1 and complex. An excerpt:
The phosphinic head of the DG080 pseudopeptide should provide it with high affinity for the active site of ERAP1. To validate this assumption, we mixed free DG080 with ERAP1 and followed ERAP1 activity using the small fluorigenic substrate L-Leucine-7-amido-4-methylcoumarin (Leu-AMC)[24]. […] Due to the low amounts of complex available, we performed assays at a fixed concentration of 1 μΜ for both free DG080 and HLA-B*08(E76C)-DG080 complex. At that concentration, free DG080 was able to inhibit almost 90% of ERAP1 activity, consistent with its measured IC50. […] We conclude that although DG080 in solution has full access to the ERAP1 active site, DG080 covalently bound onto HLA-B*08 has very limited access to the active site of ERAP1, possibly due to steric hindrances that limit a proper binding orientation necessary so that the ERAP1 active site can approach the MHCI binding groove. To validate the stability of the HLA-B*08(E76C)-DG080 versus ERAP1 trimming or peptide exchange, we first incubated the complex with 20 nM ERAP1 at 37 °C for 1 h and analyzed the sample by native-PAGE (Fig. 4C). […] To further explore a potential interaction between ERAP1 and the phosphinic N-terminus of the peptide bound onto HLA-B*08, we analyzed an equimolar mixture of ERAP1 with HLA-B*08(E76C)-DG080 by native PAGE (Fig. 4D). […]

Data set [5] deals with Endoplasmic Reticulum Aminopeptidase 1 (ERAP1) (UniProt Q9NZ08).
For data set [6], the system named is HLA-B*08. The data set is described as follows: Kinetic stability of complex by competition with SYPRO Orange (peptide dissociation). It is filed as binding. The note with it: 37 °C, 8 μM complex, 50X SYPRO Orange dye (4 μL in 20 μL), excitation 533 nm, emission 572 nm, non-covalent complex, each data point average of two repetitions. On the procedure: (§1) The assay was performed in the Lightcycler 96 RT-PCR instrument as previously reported. Reaction mixtures (total volume 20 μL) consisted of 16 μL protein complex (final concentration 8 μΜ) and 4 μL of 50X SYPRO Orange dye (Sigma–Aldrich, S5692). Excitation wavelength was set at 533 nm and emission at 572 nm. The temperature was set at 37 °C for the duration of the experiment.

The subject of data set [7] is HLA-B*08. The note with it: non-covalently linked peptide, with AI9; cited from earlier work.
The target of data set [8] is T1, ERAP1. Particulars: cited from earlier work.
The target in another data set is HLA-B*08:01 (Homo sapiens, UniProt P01889, A93T/A95T/D138N/E176V/E187T/K202T/Q94N/R180D/S35A/V36M/Y33D/Y91F). The note with it: cited from earlier work.
Data set [9] concerns the target T1, ERAP1. The note with it: cited from earlier work. This is another data set of the same source.
The target in data set [10] is T2, HLA-B*08(E76C). The data set is described as follows: Kinetic stability of complex by competition with SYPRO Orange (peptide dissociation). Particulars: 37 °C. The class given is binding. On the procedure: as §1
The target in data set [11] is T1, ERAP1. The data set is described as follows: ERAP1 trimming of MHCI-bound peptide followed by MALDI-TOF-MS. It is filed as biochemical. The note with it: 20 nM or 100 nM ERAP1; stopped with TFA; 100 mM DTT added to free peptide. On the procedure: To confirm the above finding we followed the trimming reaction by MALDI-TOF–MS which allows the concurrent detection of several peptide species. HLA-B*08(E76C)- […] was incubated with either 20 nM or 100 nM of ERAP1 and the reaction was stopped by the addition of TFA and flash-frozen. MALDI-TOF–MS analysis was performed as described before, but with the addition of 100 mM DTT to reduce the disulfide linkage to the complex so that the freed peptide can be detected (Fig. 2D).
Detection of peptides bound onto ΗLA-B*08:01 by MALDI-TOF–MS was performed as previously described[17] with the exception that 100 mM DTT was added to 10 μL samples of ΗLA-B*08:01(E76C) protein complexes to break the disulfide bond and allow detection of the peptide.

The target in a further data set is HLA-B*08:01(E76C) (Homo sapiens, UniProt P01889, A93T/A95T/D138N/E176V/E187T/K202T/Q94N/R180D/S35A/V36M/Y33D/Y91F). Put plainly: Thermal shift assay (DSF), melting temperature of HLA-B*08(E76C)/peptide complex. It is filed as physicochemical. The note with it: purified complex, Fig. 1F three repetitions shown. On the procedure:
The assay as well as the calculation of the melting temperature (Tm) of the complexes HLA-B*08:01(E76C)-DG080 and HLA-B*08:01(E76C)-AI12Cys were performed as previously reported.

[12] abbreviates: 20 nM ERAP1, up to 2 h (0–120 min).

Where a SMILES comes first, the peptide text is derived from it. The star is where a group is joined. X1 = CC(C)CC(CP(=O)(O)[C@@H](N)CCc1ccccc1)C(=O)*

With “hFΨ[P(O)(OH)CH2]LGSGSGSAAKKKYCL [HLA-B*08(E76C)-DG080, disulfide-linked HLA-B*08/ phosphinic peptide complex]”, the “ERAP1 trimming: change in electrophoretic mobility (native-PAGE)” value (shortened to “ERAP1 trimming: change”) at ERAP1 [1] (20 nM ERAP1, 37 °C, 1 h) is given as “No change in electrophoretic mobility was observed”. The “peptide exchange (electrophoretic mobility in native-PAGE)” value at HLA-B*08(E76C) [2] (excess (100 μM) ALRSRYWAI, 37 °C, 1 h) was “no change in electrophoretic mobility was evident”. In addition, the “effect on ERAP1 enzymatic activity” value in the data set with ERAP1 [3] (complex, 1 μM, Leu-AMC hydrolysis, two measurements) was “unable to fully inactivate ERAP1, and had only a marginal effect on its enzymatic activity”. At ERAP1 [4], the “band shift with ERAP1 (stable ternary complex formation)” value is “No band shifts were evident”.

With “phosphinic pseudopeptide DG080, hFΨ[P(O)(OH)CH2]…”, in data set [5], the inhibition of ERAP1 hydrolysis of Leu-AMC by titrated free DG080, IC50 was determined as 350 nM and the inhibition of ERAP1 hydrolysis of the fluorigenic substrate at a fixed 1 μΜ of free DG080 is 90%.

As for ARAALRSRYWAI [listing 1 of 2 here], the “half-life of complex (t1/2)” value in the data set with HLA-B*08 [6] is 7 ± 1 min.

As for ARAALRSRYWAI [listing 2 of 2 here], the “ERAP1 trimming: change” value at ERAP1 [1] (setting [12]) is recorded as “ERAP1 was able to modify the electrophoretic mobility”. Also, the “peptide exchange (native-PAGE)” value with HLA-B*08 [7] is “similarly to the non-covalently linked AI12 peptide”. On ERAP1 [8], the “ERAP1 trimming half-life, MHCI-bound peptide (native-PAGE)” value is 18 min. At ERAP1 [8] (non-covalent complex, compared with solution), the “ERAP1 trimming while bound onto HLA-B*08:01” value was “ERAP1 can apparently trim this peptide while it is bound onto HLA-B*08:01, albeit slower than in solution”. Moreover, the “stability of complex with HLA-B*08:01” value at HLA-B*08:01 is “thermodynamically stable but kinetically labile complex”. Moreover, on ERAP1 [9], the “ERAP1 trimming half-life, MHCI-bound peptide (MALDI-TOF-MS)” value was 20 to 30 min.

In the case of “ARAALRSRYWCI [disulfide-linked HLA-B*08/peptide complex]”, the “half-life of complex (t1/2)” value on HLA-B*08(E76C) [10] (SYPRO Orange competition, 8 μM complex, 50X SYPRO Orange dye (4 μL in 20 μL), excitation 533 nm, emission 572 nm, each data point average of three repetitions) turned out to be 450 ± 38 min. In addition, at HLA-B*08(E76C) [10] (vs non-covalent HLA-B*08-ARAALRSRYWAI complex), the “slowing of dye access to MHC binding groove by covalently linking the peptide” value was “almost 2 orders of magnitude”. Also, the “ERAP1 trimming: change” value on ERAP1 [1] (setting [12]) was “no change in electrophoretic mobility was observed”. In addition, at HLA-B*08(E76C) [2] (100 μM ALRSRYWAI + DTT (100 μM in Fig. 2B legend), incubation at RT), the “peptide exchange (native-PAGE) in presence of DTT” value is recorded as “full exchange of the ARAALRSRYWCI with ALRSRYWAI”. Further, at HLA-B*08(E76C) [2] (excess ALRSRYWAI (100 μM), 60 min at RT, no DTT), the “peptide exchange (electrophoretic mobility in native-PAGE)” value is recorded as “did not alter the electrophoretic mobility of the complex in native-PAGE suggesting no peptide exchange”. On ERAP1 [11], the “time-dependent decrease of 12mer peptide on incubation with ERAP1 (MALDI-TOF-MS)” value was “no time-dependent decrease of the 12mer peptide”. The “melting temperature (Tm)” value with HLA-B*08:01(E76C) is 44.0 ± 0.5 °C.

Take `CC(C)CC(CP(=O)(O)[C@@H](N)CCc1ccccc1)C(=O)NCC(=O)N[C@@H](CO)C(=O)NCC(=O)N[C@@H](CO)C(=O)NCC(=O)N[C@@H](CO)C(=O)N[C@@H](C)C(=O)N[C@@H](C)C(=O)N[C@@H](CCCCN)C(=O)N[C@@H](CCCCN)C(=O)N[C@@H](CCCCN)C(=O)N[C@@H](Cc1ccc(O)cc1)C(=O)N[C@@H](CS)C(=O)N[C@@H](CC(C)C)C(=O)O` (stereo partly shown) [DG080] (X1-GSGSGSAAKKKYCL-OH): the inhibition at 1 µM against ERAP1 [3] (free peptide, 1 μM, Leu-AMC hydrolysis, two measurements) is roughly 90%. Also, the IC50 against ERAP1 [3] (free peptide, substrate Leu-AMC, excitation 380 nm, emission 460 nm, log(inhibitor) vs response-variable slope, each point average of two measurements) came out at 350 ± 89 nM.
